Two molecules from ChEMBL document CHEMBL5241073, “Pharmacological Targeting of Executioner Proteins: Controlling Life and Death” (J Med Chem, 2021) can be followed below.

This experiment deals with Apoptosis regulator BAX (Homo sapiens, UniProt Q07812). Description: Inhibition of recombinant human BAX expressed in Escherichia coli BL21 (DE3) assessed as inhibition of liposome permeabilization and measured for 2 hrs by fluorescence analysis.
Chain of Apoptosis regulator BAX (Q07812 whole entry): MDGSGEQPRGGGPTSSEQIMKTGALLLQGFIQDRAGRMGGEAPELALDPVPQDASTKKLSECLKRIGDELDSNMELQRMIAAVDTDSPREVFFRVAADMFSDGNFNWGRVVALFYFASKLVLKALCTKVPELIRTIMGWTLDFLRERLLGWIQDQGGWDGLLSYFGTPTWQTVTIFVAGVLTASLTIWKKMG

Regarding `COCCOCOc1ccc2c(c1)O[C@H](CN)[C@H]2N(Cc1ccc(Br)cc1)C(=O)[C@H](Cc1ccccc1)NC(=O)c1ccccc1`, the IC50 was found to be 6 µM.
With `COCCOCOc1ccc2c(c1)O[C@H](CN(Cc1ccc(Br)cc1)C(=O)[C@H](Cc1ccccc1)NC(=O)c1ccccc1)[C@H]2N`, the IC50 came to 4 µM.

For orientation: IC50 means the point on the concentration scale where inhibition reaches its midpoint.
